# Laboratory results taken from ChEMBL document CHEMBL5465560, “Selectivity Literature for EUbOPEN Chemogenomic Library” (2024).
# Key:
# [1] = target: T1, Serine/threonine-protein kinase RIO1 (Homo sapiens) (UniProt Q9BRS2); test: Selectivity interaction (KinomeScan (DiscoverX)) EUB0000595a RIOK1; conditions: at 10 µM
# T1 sequence (whole entry): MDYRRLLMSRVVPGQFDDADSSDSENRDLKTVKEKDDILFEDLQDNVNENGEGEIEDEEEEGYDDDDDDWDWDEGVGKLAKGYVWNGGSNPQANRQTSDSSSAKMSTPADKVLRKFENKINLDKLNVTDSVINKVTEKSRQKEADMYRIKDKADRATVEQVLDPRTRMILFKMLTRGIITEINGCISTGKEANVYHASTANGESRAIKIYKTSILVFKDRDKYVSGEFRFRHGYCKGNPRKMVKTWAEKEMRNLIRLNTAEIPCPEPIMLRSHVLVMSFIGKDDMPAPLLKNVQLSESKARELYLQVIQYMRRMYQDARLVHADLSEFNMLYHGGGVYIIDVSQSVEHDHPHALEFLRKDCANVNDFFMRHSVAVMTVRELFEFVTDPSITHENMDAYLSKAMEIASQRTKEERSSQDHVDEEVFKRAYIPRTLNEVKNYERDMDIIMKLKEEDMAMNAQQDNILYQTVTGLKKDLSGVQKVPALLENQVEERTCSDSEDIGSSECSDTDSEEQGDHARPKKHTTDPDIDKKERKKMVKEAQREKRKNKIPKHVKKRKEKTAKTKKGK
# [2] = target: T2, Ephrin type-A receptor 6 (Homo sapiens) (UniProt Q9UF33); test: Selectivity interaction (KinomeScan (DiscoverX)) EUB0000045b EPHA6
# T2 sequence (whole entry): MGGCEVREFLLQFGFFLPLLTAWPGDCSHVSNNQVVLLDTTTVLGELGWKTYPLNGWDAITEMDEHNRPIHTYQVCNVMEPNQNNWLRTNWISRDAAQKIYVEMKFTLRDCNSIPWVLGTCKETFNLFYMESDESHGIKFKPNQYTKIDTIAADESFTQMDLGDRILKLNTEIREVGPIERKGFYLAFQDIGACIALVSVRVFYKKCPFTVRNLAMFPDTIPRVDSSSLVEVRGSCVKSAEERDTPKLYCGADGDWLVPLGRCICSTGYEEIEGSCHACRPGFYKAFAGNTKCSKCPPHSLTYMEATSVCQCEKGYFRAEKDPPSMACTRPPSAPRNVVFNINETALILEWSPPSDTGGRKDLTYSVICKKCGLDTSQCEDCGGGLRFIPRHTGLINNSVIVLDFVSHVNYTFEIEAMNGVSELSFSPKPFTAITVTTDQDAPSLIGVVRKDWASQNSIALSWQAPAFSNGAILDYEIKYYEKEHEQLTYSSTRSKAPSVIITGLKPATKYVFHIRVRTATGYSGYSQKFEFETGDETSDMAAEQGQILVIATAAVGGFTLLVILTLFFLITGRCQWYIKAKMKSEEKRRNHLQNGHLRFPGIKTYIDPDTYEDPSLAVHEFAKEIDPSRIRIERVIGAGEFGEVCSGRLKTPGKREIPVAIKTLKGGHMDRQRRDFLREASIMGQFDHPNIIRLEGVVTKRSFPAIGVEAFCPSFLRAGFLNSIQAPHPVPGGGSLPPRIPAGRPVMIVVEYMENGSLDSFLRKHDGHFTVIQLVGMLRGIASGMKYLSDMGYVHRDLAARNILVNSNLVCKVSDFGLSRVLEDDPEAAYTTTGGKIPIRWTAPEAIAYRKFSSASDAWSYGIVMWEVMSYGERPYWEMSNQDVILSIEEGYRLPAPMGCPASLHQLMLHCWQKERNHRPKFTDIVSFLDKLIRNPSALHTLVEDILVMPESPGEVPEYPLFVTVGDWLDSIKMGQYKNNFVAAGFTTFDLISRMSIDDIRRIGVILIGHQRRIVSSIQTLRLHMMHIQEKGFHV
# [3] = target: Serine/threonine-protein kinase NIM1 (Homo sapiens, UniProt Q8IY84); test: Selectivity interaction (KinomeScan (DiscoverX)) EUB0000695a NIM1K; conditions: at 100 nM
# Chain of Serine/threonine-protein kinase NIM1 (Q8IY84 whole entry): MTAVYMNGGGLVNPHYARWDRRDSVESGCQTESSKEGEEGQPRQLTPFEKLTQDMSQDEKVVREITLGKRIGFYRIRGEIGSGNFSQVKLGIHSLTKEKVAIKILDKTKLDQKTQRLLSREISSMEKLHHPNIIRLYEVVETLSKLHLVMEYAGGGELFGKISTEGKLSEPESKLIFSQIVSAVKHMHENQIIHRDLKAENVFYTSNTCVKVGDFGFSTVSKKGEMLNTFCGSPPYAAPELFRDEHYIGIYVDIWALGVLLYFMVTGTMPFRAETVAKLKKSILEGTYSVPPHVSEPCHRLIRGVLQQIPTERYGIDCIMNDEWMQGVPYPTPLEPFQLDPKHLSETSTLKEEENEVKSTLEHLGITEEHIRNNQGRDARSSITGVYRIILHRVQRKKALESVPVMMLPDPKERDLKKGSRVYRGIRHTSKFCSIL
# [4] = target: Serine/threonine-protein kinase 32B (Homo sapiens) (UniProt Q9NY57); test: Selectivity interaction (KinomeScan (DiscoverX)) EUB0001079a STK32B; conditions: at 1 µM
# Chain of Serine/threonine-protein kinase 32B (Homo sapiens) (Q9NY57 whole entry): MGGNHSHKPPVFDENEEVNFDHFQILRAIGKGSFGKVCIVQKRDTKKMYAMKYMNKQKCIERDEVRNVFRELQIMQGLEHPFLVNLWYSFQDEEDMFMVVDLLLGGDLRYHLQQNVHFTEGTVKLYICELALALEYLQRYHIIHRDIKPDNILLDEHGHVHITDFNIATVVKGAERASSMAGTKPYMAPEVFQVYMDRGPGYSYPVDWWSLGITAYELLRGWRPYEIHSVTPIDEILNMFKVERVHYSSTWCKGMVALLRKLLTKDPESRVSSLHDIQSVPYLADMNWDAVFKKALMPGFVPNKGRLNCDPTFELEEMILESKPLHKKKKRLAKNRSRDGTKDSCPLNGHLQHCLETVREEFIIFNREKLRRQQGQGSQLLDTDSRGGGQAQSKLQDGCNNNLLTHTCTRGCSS
# [5] = target: Calcium/calmodulin-dependent protein kinase kinase 1 (Homo sapiens) (UniProt Q8N5S9); test: Selectivity interaction (KinomeScan (DiscoverX)) EUB0001079a CAMKK1; conditions: at 1 µM
# [6] = target: Cyclin-dependent kinase 2 (Homo sapiens, UniProt P24941); test: Selectivity interaction (KinomeScan (DiscoverX)) EUB0000666a CDK2; conditions: at 10 µM
# [7] = target: Neuromedin-K receptor (Homo sapiens) (UniProt P29371); test: Selectivity interaction (Eurofins CEREP Diversity Profile (receptors and ion channels)) EUB0000279b TACR3; conditions: at 10 µM
# [8] = target: LIM domain kinase 1 (Homo sapiens) (UniProt P53667); test: Selectivity interaction (KinomeScan (DiscoverX)) EUB0001049a LIMK1; conditions: at 1 µM
# [9] = target: Serine/threonine-protein kinase MRCK alpha (Homo sapiens) (UniProt Q5VT25); test: Selectivity interaction (Upstate Kinase Profiler service (Millipore)) EUB0000056c CDC42BPA; conditions: at 1 µM
# Chain of Serine/threonine-protein kinase MRCK alpha (Homo sapiens) (Q5VT25 whole entry): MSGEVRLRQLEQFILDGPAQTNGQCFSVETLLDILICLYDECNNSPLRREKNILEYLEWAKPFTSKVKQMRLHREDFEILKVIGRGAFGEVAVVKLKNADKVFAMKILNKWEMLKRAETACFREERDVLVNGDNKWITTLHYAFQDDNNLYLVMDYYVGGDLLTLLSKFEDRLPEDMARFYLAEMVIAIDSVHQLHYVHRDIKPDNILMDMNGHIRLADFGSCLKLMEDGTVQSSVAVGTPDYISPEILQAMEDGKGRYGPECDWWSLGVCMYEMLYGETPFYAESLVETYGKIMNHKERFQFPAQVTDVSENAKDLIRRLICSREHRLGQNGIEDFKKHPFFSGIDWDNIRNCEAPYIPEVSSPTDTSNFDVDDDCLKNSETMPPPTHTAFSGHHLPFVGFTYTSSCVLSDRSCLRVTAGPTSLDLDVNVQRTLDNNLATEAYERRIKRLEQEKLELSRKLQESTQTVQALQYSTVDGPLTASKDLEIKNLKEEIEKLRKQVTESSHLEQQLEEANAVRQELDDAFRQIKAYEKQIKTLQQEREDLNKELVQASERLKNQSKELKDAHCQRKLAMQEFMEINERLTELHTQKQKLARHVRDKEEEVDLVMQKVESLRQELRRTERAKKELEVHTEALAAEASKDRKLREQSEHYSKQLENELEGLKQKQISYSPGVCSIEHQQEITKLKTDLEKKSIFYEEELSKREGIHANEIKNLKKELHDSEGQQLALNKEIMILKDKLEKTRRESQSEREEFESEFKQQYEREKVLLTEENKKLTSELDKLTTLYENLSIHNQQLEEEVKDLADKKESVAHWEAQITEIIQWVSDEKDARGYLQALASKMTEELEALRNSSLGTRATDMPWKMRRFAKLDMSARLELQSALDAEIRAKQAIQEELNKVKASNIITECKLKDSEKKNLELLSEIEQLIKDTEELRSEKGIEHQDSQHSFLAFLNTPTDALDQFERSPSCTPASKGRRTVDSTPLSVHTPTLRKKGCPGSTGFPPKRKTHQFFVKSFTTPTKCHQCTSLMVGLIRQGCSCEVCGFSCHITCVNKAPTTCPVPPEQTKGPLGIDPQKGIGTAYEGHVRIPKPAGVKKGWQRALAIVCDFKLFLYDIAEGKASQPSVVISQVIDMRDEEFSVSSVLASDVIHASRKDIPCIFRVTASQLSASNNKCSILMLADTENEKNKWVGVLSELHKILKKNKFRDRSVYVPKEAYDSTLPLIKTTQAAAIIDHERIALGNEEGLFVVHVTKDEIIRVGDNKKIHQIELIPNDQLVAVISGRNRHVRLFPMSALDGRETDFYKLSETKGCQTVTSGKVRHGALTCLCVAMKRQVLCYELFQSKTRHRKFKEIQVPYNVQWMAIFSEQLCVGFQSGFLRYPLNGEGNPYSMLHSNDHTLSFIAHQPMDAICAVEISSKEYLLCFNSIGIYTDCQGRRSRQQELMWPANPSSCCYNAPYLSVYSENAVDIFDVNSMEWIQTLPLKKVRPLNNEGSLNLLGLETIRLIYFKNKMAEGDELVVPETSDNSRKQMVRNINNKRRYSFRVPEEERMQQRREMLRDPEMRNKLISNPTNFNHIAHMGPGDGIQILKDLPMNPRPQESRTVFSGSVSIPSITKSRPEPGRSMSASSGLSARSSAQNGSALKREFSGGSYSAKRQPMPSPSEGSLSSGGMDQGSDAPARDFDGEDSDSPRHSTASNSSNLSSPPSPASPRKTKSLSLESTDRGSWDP
# [10] = target: Mitogen-activated protein kinase 10 (Homo sapiens, UniProt P53779); test: Selectivity interaction (ProQinase) EUB0000171b MAPK10
# Chain of Mitogen-activated protein kinase 10 (P53779 whole entry): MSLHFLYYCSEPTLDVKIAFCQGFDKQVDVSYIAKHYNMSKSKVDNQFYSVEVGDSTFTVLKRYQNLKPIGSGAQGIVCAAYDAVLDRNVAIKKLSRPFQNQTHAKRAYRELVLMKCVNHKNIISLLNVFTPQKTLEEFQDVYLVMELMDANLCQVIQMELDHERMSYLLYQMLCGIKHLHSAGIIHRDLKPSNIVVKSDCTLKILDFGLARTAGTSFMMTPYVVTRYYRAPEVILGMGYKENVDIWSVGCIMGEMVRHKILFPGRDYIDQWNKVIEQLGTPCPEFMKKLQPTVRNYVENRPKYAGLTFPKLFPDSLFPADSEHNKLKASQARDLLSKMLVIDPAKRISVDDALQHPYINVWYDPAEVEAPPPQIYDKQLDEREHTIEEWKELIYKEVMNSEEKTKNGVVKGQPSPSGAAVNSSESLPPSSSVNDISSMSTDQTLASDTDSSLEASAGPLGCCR
# [11] = target: Serine/threonine-protein kinase pim-2 (Homo sapiens, UniProt Q9P1W9); test: Selectivity interaction (ProQinase) EUB0000171b PIM2
# Chain of Serine/threonine-protein kinase pim-2 (Q9P1W9 whole entry, looked up): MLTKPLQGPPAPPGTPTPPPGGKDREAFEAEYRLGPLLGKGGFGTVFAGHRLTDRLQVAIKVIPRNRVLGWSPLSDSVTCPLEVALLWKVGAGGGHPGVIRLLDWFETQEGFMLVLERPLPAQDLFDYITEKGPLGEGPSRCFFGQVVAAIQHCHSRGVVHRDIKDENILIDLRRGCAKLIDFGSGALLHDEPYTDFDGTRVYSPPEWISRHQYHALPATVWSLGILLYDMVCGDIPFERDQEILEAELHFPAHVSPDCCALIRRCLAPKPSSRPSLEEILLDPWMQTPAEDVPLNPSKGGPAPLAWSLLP
# [12] = target: Calcium/calmodulin-dependent protein kinase type 1G (Homo sapiens) (UniProt Q96NX5); test: Selectivity interaction (KinomeScan (DiscoverX)) EUB0000618a CAMK1G; conditions: at 10 µM
# Chain of Calcium/calmodulin-dependent protein kinase type 1G (Homo sapiens) (Q96NX5 whole entry): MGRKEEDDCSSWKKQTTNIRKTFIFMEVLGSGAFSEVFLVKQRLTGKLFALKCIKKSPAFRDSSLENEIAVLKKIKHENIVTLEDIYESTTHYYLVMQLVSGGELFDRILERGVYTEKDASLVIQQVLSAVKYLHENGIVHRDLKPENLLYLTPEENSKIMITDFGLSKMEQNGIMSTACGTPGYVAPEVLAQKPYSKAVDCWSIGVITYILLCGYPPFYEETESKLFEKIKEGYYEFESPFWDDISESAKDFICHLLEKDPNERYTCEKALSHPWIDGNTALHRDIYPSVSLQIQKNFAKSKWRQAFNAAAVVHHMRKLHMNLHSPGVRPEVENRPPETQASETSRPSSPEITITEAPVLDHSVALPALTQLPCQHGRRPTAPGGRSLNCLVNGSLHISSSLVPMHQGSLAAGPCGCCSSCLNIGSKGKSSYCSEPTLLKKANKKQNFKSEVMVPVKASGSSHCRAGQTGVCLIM
# [13] = target: Ribosomal protein S6 kinase beta-1 (Homo sapiens, UniProt P23443); test: Selectivity interaction (ActivX KiNativ screen (kinase selectivity in THP-1 cell lysates)) EUB0000639a RPS6KB1; type: subcellular; conditions: lysate, at 5 µM
# Chain of Ribosomal protein S6 kinase beta-1 (P23443 whole entry, looked up): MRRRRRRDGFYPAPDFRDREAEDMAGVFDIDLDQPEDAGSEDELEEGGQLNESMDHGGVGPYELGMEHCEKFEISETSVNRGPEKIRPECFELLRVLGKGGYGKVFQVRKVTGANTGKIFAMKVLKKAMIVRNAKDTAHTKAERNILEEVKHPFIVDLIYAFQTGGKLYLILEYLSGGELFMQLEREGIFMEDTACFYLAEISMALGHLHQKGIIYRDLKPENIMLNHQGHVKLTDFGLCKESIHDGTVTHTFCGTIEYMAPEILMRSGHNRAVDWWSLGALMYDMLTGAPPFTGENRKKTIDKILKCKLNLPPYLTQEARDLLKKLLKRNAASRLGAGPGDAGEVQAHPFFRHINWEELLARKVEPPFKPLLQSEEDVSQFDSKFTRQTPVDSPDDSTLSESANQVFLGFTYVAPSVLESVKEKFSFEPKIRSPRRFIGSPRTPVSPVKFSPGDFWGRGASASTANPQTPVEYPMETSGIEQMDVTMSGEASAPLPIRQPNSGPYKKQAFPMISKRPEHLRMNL
# [14] = target: Serine/threonine-protein kinase Chk2 (Homo sapiens) (UniProt O96017); test: Selectivity interaction (ActivX KiNativ screen (kinase selectivity in THP-1 cell lysates)) EUB0000639a CHEK2; type: subcellular; conditions: lysate, at 0.2 µM
# Chain of Serine/threonine-protein kinase Chk2 (Homo sapiens) (O96017 whole entry): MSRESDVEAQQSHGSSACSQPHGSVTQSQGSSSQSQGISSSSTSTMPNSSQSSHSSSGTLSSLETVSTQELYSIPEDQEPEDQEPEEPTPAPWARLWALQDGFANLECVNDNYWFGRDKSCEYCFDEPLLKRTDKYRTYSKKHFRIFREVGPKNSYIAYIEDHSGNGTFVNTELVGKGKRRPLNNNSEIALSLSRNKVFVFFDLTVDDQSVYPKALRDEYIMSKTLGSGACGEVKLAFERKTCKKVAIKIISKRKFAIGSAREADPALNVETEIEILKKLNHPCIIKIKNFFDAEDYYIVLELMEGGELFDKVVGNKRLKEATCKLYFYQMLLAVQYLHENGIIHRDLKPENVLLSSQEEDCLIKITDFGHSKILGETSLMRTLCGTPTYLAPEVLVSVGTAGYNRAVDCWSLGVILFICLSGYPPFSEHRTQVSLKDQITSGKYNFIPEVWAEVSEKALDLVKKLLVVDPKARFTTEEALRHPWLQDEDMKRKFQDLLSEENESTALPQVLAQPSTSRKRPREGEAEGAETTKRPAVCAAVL
compound,measurement,setting,value
COCC(=O)NC/C=C/c1ccc2ncnc(Nc3ccc(Oc4ccc(C)nc4)c(C)c3)c2c1 [CP-724714],% of control,[1],91%
C=CC(=O)Nc1cc(-n2c(=O)ccc3cnc4ccc(-c5ccc(NS(C)(=O)=O)cc5)cc4c32)ccc1C,% of control,[2]; at 1 µM,96%
same,% of control,[2]; at 10 µM,87%
Cc1cc(F)c(C(=O)Nc2cccc(-c3nncn3C(C)C)n2)cc1-n1cnc(C2CC2)c1,% of control,[3],84%
Nc1cnc(N2CCc3cc(S(=O)(=O)Nc4c(F)cc(Cl)cc4F)cc(N4CCCC4=O)c32)nc1 [TP-020n],% of control,[4],74%
same,% of control,[5],100%
O=C(NOC[C@H](O)CO)c1ccc(F)c(F)c1Nc1ccc(I)cc1F,% of control,[6],91%
CC(=O)c1cc(-c2ccccc2OCC2CC2)c2ncccn12,% of control,[7],85%
COc1cc(Nc2nc(C)cc(-c3cnn4nc(OC)ccc34)n2)cc(C(F)(F)F)c1,% of control,[8],75%
Cc1ccc(-c2ccc3c(ccc4sc5c(c43)NC[C@@H](C)NC5=O)n2)cn1,% of inhibition,[9],-21%
C=CC(=O)Nc1cccc(C(=O)Nc2ccc(Nc3cc(-c4[nH]c(SC)nc4C)ccn3)cc2)c1,% of control,[10]; at 1 µM,3%
same,% of control,[10]; at 5 µM,0%
same,% of control,[11]; at 1 µM,101%
same,% of control,[11]; at 5 µM,69%
O[C@H]1CC[C@H](Nc2ncc3nc(Nc4c(F)cc(F)cc4F)n([C@H]4CCOC4)c3n2)CC1,% of control,[12],100%
CC[C@@H]1[C@H](F)C(=O)N[C@@H]1COc1nccc2cc(C(N)=O)c(OC)cc12 [ZIMLOVISERTIB],% of inhibition,[13],3.9%
same,% of inhibition,[14],-0.3%
